This is an account of results in patent publication US10730892B2, “Homoallylamines as formaldehyde-responsive triggers” (The Regents of the University of California, priority 2015, dated 2020).

Data set [1] has as its system HEK293TN cells. The note with it: 5 mM FA, 37° C., 3 hrs. As for the experimental part: (§1) Nuclear magnetic resonance (NMR) spectra were recorded on Varian 400 or 500 MHz spectrometers at 25° C. Chemical shifts are reported in ppm (δ) and are referenced to residual protic peaks. The following abbreviations are used to describe coupling constants: singlet (s), doublet (d), triplet (t), quartet (q), doublet doublet (dd), doublet triplet (dt), doublet quartet (dq), doublet doublet triplet (ddt), multiplet (m), and broad singlet (bs). IR spectra were recorded with a PerkinElmer Spectrum Two infrared (IR) spectrometer. High-resolution mass spectra were acquired with a Waters Q-TOF Ultima ESI mass spectrometer and a Waters Synapt G2-Si ESI/LC-MS mass spectrometer. UV-visible spectra were recorded on a Cary 60 spectrometer. Fluorescence spectra were acquired on a QuantaMaster-400 scanning spectrofluorometer with micro fluorescence quartz cuvettes (Science Outlet). Flow cytometry was performed on a BD Biosciences LSR II (San Jose, Calif., USA), and the data were analyzed as described using FACSDiva software.
(§2) HEK293TN cells were obtained from Prof. Paul Hergenrother (UIUC, Chemistry) and cultured in phenol-red free Dulbecco's modified eagle medium (DMEM, Corning) supplemented with 10% fetal bovine serum (FBS, Sigma Aldrich), and 1% penicillin/streptomycin (Corning). Neuroscreen-1 cells were obtained from Prof. Kai Zhang (UIUC, Biochemistry) and cultured in Ham's F-12K medium (Sigma Aldrich) supplemented with 15% horse serum (Hyclone), 2.5% fetal bovine serum (FBS, Sigma Aldrich), and 1% penicillin/streptomycin (Corning). Cells were incubated at 37° C. and 5% CO2. One day before imaging, cells were passed and plated on 8-well chambered coverglasses (Lab-Tek) at a density of 40,000 cells per mL (or 20,000 cells per well). Cells would reach 70-80% confluency before imaging. […] Samples of HEK293TN and NS1 cells for flow cytometry were prepared by passaging and seeding each well of a 6-well cluster culture dish (Cyto-One) with 300,000 cells one day before experiments. […] Stained cells were aspirated and serum-free DMEM added. Subsequently, a 10× concentrated FA solution was added to give a final concentration of 1.0 mM. 2.5 mM and 5 mM. After incubation cells with FA, the media was removed and replaced with serum-free DMEM. Finally, cells were trypsinized, pelleted via centrifugation, resuspended in phosphate-buffered saline (PBS) for flow cytometric analysis.

For a further data set, the system named is NS1 cells. Particulars: 37° C., 3 hrs. How it is done:
as §1, §2

The test system of data set [2] is HEK293TN cells. As for the experimental part:
FIG. 9 depicts live-cell imaging of HEK293TN cells. […] Cells were irradiated with the 633 nm HeNe laser set at 3% power with a pinhole size of 1 airy unit. The emission was collected between 645 and 800 nm. Scale bar represents 20 μm. Pseudo-coloring represents intensity distribution from highest intensity indicated by white to the lowest intensity designated by black.
FIG. 10 depicts the quantification of observed fluorescence intensity by confocal imaging in HEK293TN cells after incubation with 1 mM, 2.5 mM or 5 mM FA for 1 (light grey bars), 2 (dark grey bars) and 3 hrs (black bars). A DMEM vehicle was added to control cells which was normalized to 1 (white bars). […] For each condition, a minimum of 5 images were averaged (n>5). Errors represent standard deviation.
as §2
Prior to imaging, cells were allowed to recover in FA-free buffer for 30 min. […] Because FA is a powerful fixative, cell viability assays were performed to determine the cytotoxicity of FA under experimental conditions. A dye exclusion protocol was employed, utilizing trypan blue to selectively stain and distinguish dead cells from those that were viable. […] To further verify that the cell populations under investigation were indeed alive, DAPI, a cell permeable nuclear and chromosome counterstain, was employed to identify intact nuclei (FIG. 16).

The conditions of data set [3]: for fold increase in fluorescence intensity: 3 h. As for the experimental part:
All experiments were performed at 37° C. for 3 h. Time points on graphs a-b are recorded every 15 min. The time points for graphs c-d represent every 30 min.
All buffers used for pH titrations were prepared in deionized water and brought to the appropriate pH with aqueous HCl or NaOH. The buffers used were 50 mM glycine (pH range 2.00-3.50), 50 mM NaOAc (pH range 4.00-5.60), 50 mM MES (pH range 5.60-6.80), 50 mM HEPES (pH range 6.80-8.20), 50 mM Tris (pH range 8.20-9.50) and 50 mM glycine (pH range 9.50-10.40). A 10 mM stock solution of formaldehyde for in vitro titration experiments was prepared by heating a suspension of paraformaldehyde (>88% w/w, 17.6 mg, 0.50 mmol, TCI, lot # NXR2B) in phosphate buffered saline (PBS) buffered to pH 7.4 (50 mL) at 88° C. for 1 hr. The solution was cooled to room temperature and filtered through a 0.22 μm syringe filter (Millex).
as §1
(§3) In addition to its ability to crosslink biomolecules, FA is cytotoxic through the induction of oxidative stress (Zararsiz et al., Cell Biochem. Fund. 2007, 25:413).

The procedure of data set [4]:
Time points on graph are 0, 30, 60, 90, 120, 150, and 180 min. […] Bars represent normalized fold-changes in response to treatment with each analyte listed at 1 mM for 3 hrs.
as §3

In data set [5] the test system is HEK293TN cells. Particulars: 100 scans at 25% laser power, pinhole 1 airy unit. From the text: (§4) For example, semicarbazide-sensitive amine oxidase (SSAO) is primarily localized to the plasma membrane (Andres et al., J. Histochem. Cytochem. 2001, 49:209). Thus, both HEK293TN and NS1 cells were costained with ER-Tracker Green, LysoTracker Green DND-26, and MitoTracker Green FM, fluorescent indicators that are known to selectively stain the endoplasmic reticulum, lysosome, and mitochondria, respectively in almost all cell types (FIG. 17A and FIG. 17B).

For another data set, the system named is HEK293TN and NS1 cells. The note with it: 1 μM FP1 for 8 min, imaged after 30 min and after 8 hrs.
Text: as §4

SMILES strings stand for the structures. Values joined by “and” are separate entries in the source; they are usually repeats but may differ in a detail not shown here. Equal values may be shown once. Read-outs that look alike come from different tables or passages of the source.

In the case of `C=CCC(NCc1ccc([N+](=O)[O-])cc1)c1cn(C)c2cc(C)c(C3=C4C=CC(=O)C=C4[Si](C)(C)c4c3cc3c5c4CCCN5CCC3)cc12` (stereo not drawn) [FP1], the “fold turn-on, median APC-A fluorescence intensity (flow cytometry)” value with HEK293TN cells [1] was roughly 2.5 fold. For the same compound, the “fluorescence turn-on (flow cytometry)” value with NS1 cells (NS1, 0.25 mM FA) is on record as 42%; with NS1 cells (NS1, 0.5 mM FA), 50%. Further, the “fold increase by flow cytometry” value in the data set with NS1 cells (NS1, 5 mM FA) is 4.2 fold. In addition, the “fold increase in fluorescence intensity (confocal)” value in the data set on HEK293TN cells [2] (2 μM FP1, 1 mM FA, 1 hr) amounted to 1.2 fold; with HEK293TN cells [2] (2 μM FP1, 1 mM FA, 2 hrs), 1.3 fold; in the data set with HEK293TN cells [2] (2 μM FP1, 1 mM FA, 3 hrs), 1.6 fold; in the data set with HEK293TN cells [2] (2 μM FP1, 2.5 mM FA, 1 hr), 1.2 fold; in the data set with HEK293TN cells [2] (2 μM FP1, 2.5 mM FA, 2 hrs), 1.7 fold; in the data set with HEK293TN cells [2] (2 μM FP1, 2.5 mM FA, 3 hrs), 2.2 fold. In addition, the “fold increase in fluorescence intensity (confocal)” value in the data set on HEK293TN cells [2] (2 μM FP1, 5 mM FA, 1 hr) is 2.1 fold; with HEK293TN cells [2] (2 μM FP1, 5 mM FA, 2 hrs) it was 2.6 fold; with HEK293TN cells [2] (2 μM FP1, 5 mM FA, 3 hrs), ~3 fold and 2.9 fold and 2.8 fold. In addition, the “fold increase in fluorescence intensity” value was 3.9 fold in data set [3] (1 μM FP1, 0.1 mM FA, PBS pH 7.4, 37° C.); 8.5 fold in data set [3] (1 μM FP1, 0.5 mM FA, PBS pH 7.4, 37° C.); 12.8 fold and 11.6 fold in data set [3] (1 μM FP1, 1 mM FA, PBS pH 7.4, 37° C.). For the same compound, the fold fluorescence increase result in data set [3] (1 μM FP1, 0.25 mM FA, PBS pH 7.4, 37° C., 3 hrs) was “ca. 7.0 fold”; in data set [4] (1 μM FP1, 1 mM acetaldehyde, 3 hrs), 1.9 fold. Also, the “lower limit of detection of FP1” value in data set [3] (FA, after 3 hrs incubation at 37° C.) is 0.01 mM. Besides, in data set [4] (1 μM FP1, 1 mM of the various analytes), the “cross-reactivity with aldehyde containing species” value is listed as “only minimal cross-reactivity”. Also, the change in fluorescence result in data set [4] (1 mM hydrogen peroxide) is listed as “no significant change in fluorescence”. Also, in data set [4] (cysteine, glutathione, hydrogen sulfide, 1 mM, 3 hrs), the “chemical stability in the presence of intracellular reductants” value is “no aberrant reactivity”. The “photostability toward repeated irradiation” value in the data set on HEK293TN cells [5] is given as “no decrease in fluorescence”. Moreover, the “dye efflux: change in fluorescence” value in the data set with HEK293TN and NS1 cells was “no statistically significant decrease in fluorescence”.
